Experimental data as given in patent publication US20220185818A1, “PYRROLOHETEROCYCLIC DERIVATIVE, PREPARATION METHOD THEREFOR, AND APPLICATION THEREOF IN MEDICINE” (Jiangsu Hengrui Medicine Co., Ltd., priority 2019, published 2022).

Key:
[1] = target: T1, ERK1 (Homo sapiens, UniProt P27361); experiment: ERK1 enzyme activity test (ADP-Glo Kinase Assay); assay type: biochemical; details: read-out: IC50 value of the inhibition on ERK1 enzyme activity
T1 construct: purchased R&D 1879-KS-010
Protocol: (§1) The purpose of this experiment is to detect the inhibitory ability of the compounds on the ERK1 enzyme activity, and evaluate the in vitro activity of the compounds based on the IC50. The ADP-Glo™ Kinase Assay Kit is used in this experiment. Under the action of the enzyme, the substrate is phosphorylated and ADP is produced at the same time. The ADP-Glo reagent is added to remove the unreacted ATP in the reaction system, and the ADP produced by the reaction is detected with the kinase detection reagent. In the presence of the compound, the inhibition rate of the compound is calculated by measuring the signal value.
(§2) ATP was diluted to 300 μM with the buffer. The compound was dissolved in DMSO to prepare a stock solution with an initial concentration of 20 mM, and then Bravo (SGC120TH34702, Agilent Technologies) was used to dilute the stock solution to desired concentrations. Finally, a 30 μL of a mixed solution of enzyme and substrate, and 1 μL, of different concentrations of the compound (the initial concentration is 50 μM, 4-fold dilution) were added to each well of the 384-well plate, and the plate was incubated at 30° C. for 10 minutes, and finally 1 μL of 300 μM ATP solution was added to each well, and the plate was incubated at 30° C. for 2 hours. Then 5 μL of ADP-Glo was added, and the plate was incubated at 30° C. for 40 minutes. Then 10 μL of Kinase detection buffer was added, and the plate was incubated at 30° C. for 40 minutes. The 384-well plate was taken out and placed in a microplate reader (BMG labtech, PHERAstar FS), and the chemiluminescence was measured by the microplate reader.
(§3) Microsoft Excel, Graphpad Prism 5 was used to process and analyze the data.

[2] = target: T2, ERK2 (Homo sapiens, UniProt P28482); experiment: ERK2 enzyme activity test (ADP-Glo Kinase Assay); assay type: biochemical; details: read-out: IC50 value of the inhibition on ERK2 enzyme activity
T2 construct: purchased R&D 1879-KS-010
Protocol: as §1, with “ERK2” for “ERK1”, “by” for “with”
as §2, with “to 500” for “to 300”, “a 3” for “a 30”, “1 μL” for “1 μL,”, “of 500” for “of 300”, “of kinase” for “of Kinase”
as §3

[3] = test system: Colo205 cells; experiment: In vitro proliferation inhibition test on Colo205 tumor cells (CellTiter-Glo); assay type: cell-based; details: Homo sapiens, COLO 205, 72 h; 3 days of culture, CTG; read-out: IC50 value of the inhibition on in vitro Colo205 tumor cell proliferation
Protocol: The purpose of this experiment is to test the inhibitory activity of the compounds on the proliferation of Colo205 cells (CCL-222, ATCC) in vitro. The cells were treated in vitro with different concentrations of the compounds. After 3 days of culture, the cell proliferation was tested with CTG (CellTiter-Glo® Luminescent Cell Viability Assay, Promega, Catalog No. G7573) reagent, and the in vitro activity of the compounds was evaluated according to the IC50 value.
In the following, taking the in vitro proliferation inhibition test method of Colo205 cells as an example, the method in the present disclosure for testing the in vitro proliferation inhibitory activity of the compounds of the present disclosure is described. This method is also applicable to, but not limited to, the in vitro proliferation inhibitory activity test on other tumor cells.
Colo205 cells were digested, centrifuged and then resuspended. The single cell suspension was mixed well, and the density of viable cells was adjusted to 5.0×10^4 cells/ml with cell culture medium (RPMI1640+2% FBS), and 95 μl/well was added to a 96-well cell culture plate. Only 100 μl medium was added to the peripheral wells of the 96-well plate. The culture plate was incubated in an incubator for 24 hours (37° C., 5% CO2).
The compound was dissolved in DMSO and prepared into a stock solution with an initial concentration of 20 mM. The initial concentration of the small molecule compound was 2 mM, and then 4-fold diluted into 9 points, and the 10th point is DMSO. Another 96-well plate was taken and 90 μl of cell culture medium (RPMI1640+2% FBS) was added to each well, then 10 μl of different concentrations of the test sample was added to each well. The mixture was mixed well, and then 5 μL of different concentrations of the test sample was added to the cell culture plate with duplicate well for each sample. The culture plate was incubated in an incubator for 3 days (37° C., 5% CO2). The 96-well cell culture plate was taken out, 50 μL CTG solution was added to each well, and the plate was incubated for 10 minutes at room temperature. In a microplate reader (BMG labtech, PHERAstar FS), chemiluminescence was measured with the microplate reader.
as §3

T1 sequence (P27361 whole entry): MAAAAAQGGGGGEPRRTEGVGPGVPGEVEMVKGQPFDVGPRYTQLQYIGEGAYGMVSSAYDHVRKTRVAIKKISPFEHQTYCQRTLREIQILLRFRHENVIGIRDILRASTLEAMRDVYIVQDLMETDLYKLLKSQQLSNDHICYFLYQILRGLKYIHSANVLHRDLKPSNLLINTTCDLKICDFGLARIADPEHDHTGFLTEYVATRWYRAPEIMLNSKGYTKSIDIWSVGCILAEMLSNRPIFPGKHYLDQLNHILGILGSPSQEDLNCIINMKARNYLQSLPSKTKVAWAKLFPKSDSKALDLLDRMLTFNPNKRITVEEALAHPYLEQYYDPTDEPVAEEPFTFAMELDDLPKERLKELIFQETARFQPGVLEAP
T2 sequence (P28482 2-360 limits assumed): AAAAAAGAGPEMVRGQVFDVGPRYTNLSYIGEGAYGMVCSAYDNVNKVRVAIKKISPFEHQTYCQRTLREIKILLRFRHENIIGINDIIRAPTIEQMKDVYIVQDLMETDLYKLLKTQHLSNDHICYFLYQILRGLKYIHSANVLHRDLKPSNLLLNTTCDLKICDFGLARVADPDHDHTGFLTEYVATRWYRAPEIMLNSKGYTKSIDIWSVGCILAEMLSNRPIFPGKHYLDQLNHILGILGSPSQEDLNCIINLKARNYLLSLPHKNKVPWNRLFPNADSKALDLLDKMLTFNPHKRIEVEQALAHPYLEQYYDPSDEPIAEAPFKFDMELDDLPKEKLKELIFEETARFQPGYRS

SMILES | IC50 [1] [nM] | IC50 [2] [nM] | IC50 [3] [nM]
Cn1nccc1Nc1nccc(-c2cc3n(c2)C(=O)N([C@H](CO)c2ccc(F)c(Cl)c2)C3)n1 [Example 16, (S)-2-(1-(3-Chloro-4-fluorophenyl)-2-hydroxyethyl)-6-(2-((1-methyl-1H-pyrazol-5-yl)amino)pyrimidin-4-yl)-1H-pyrrolo[1,2-c]imidazol-3(2H)-one] | 70 | 44 | 180
Cc1cnc(Nc2ccnn2C)nc1-c1cc2n(c1)C(=O)N([C@H](CO)c1ccc(Cl)c(F)c1)C2 [Example 14, (S)-2-(1-(4-Chloro-3-fluorophenyl)-2-hydroxyethyl)-6-(5-methyl-2-((1-methyl-1H-pyrazol-5-yl)amino)pyrimidin-4-yl)-1H-pyrrolo[1,2-c]imidazol-3(2H)-one] |  | 5 | 92
Cn1nccc1Nc1nccc(-c2cc3n(c2)C(=O)N([C@H](CO)c2cccc(F)c2)C3)n1 [Example 19, (S)-2-(1-(3-Fluorophenyl)-2-hydroxyethyl)-6-(2-((1-methyl-1H-pyrazol-5-yl)amino)pyrimidin-4-yl)-1H-pyrrolo[1,2-c]imidazol-3(2H)-one] | 24 | 20 | 101
Cn1nccc1Nc1nccc(-c2cc3n(c2)C(=O)N([C@H](CO)c2ccc(Cl)cc2)C3)n1 [Example 21, (S)-2-(1-(4-Chlorophenyl)-2-hydroxyethyl)-6-(2-((1-methyl-1H-pyrazol-5-yl)amino)pyrimidin-4-yl)-1H-pyrrolo[1,2-c]imidazol-3(2H)-one] | 67 | 45 | 120
C[C@@H](CO)Nc1ncc(Cl)c(-c2cc3n(c2)C(=O)N([C@H](CO)c2cccc(Cl)c2)C3)n1 [Example 5, 6-(5-Chloro-2-(((S)-1-hydroxypropan-2-yl)amino)pyrimidin-4-yl)-2-((S)-1-(3-chlorophenyl)-2-hydroxyethyl)-1H-pyrrolo[1,2-c]imidazol-3(2H)-one] | 10 |  | 81
Cc1cnc(Nc2ccnn2C)nc1-c1cc2n(c1)C(=O)N([C@H](CN)c1cccc(Cl)c1)C2 [Example 11, (S)-2-(2-Amino-1-(3-chlorophenyl)ethyl)-6-(5-methyl-2-((1-methyl-1H-pyrazol-5-yl)amino)pyrimidin-4-yl)-1H-pyrrolo[1,2-c]imidazol-3(2H)-one] |  | 18 | 
Cc1cnc(Nc2ccnn2C)nc1-c1cc2n(c1)C(=O)N([C@H](CO)c1ccc(F)c(Cl)c1)C2 [Example 6, (S)-2-(1-(3-Chloro-4-fluorophenyl)-2-hydroxyethyl)-6-(5-methyl-2-((1-methyl-1H-pyrazol-5-yl)amino)pyrimidin-4-yl)-1H-pyrrolo[1,2-c]imidazol-3(2H)-one] | 14 | 10 | 74
Cn1nccc1Nc1ncc(Cl)c(-c2cc3n(c2)C(=O)N([C@H](CO)c2cccc(Cl)c2)C3)n1 [Example 2, (S)-6-(5-Chloro-2-((1-methyl-1H-pyrazol-5-yl)amino)pyrimidin-4-yl)-2-(1-(3-chlorophenyl)-2-hydroxyethyl)-1H-pyrrolo[1,2-c]imidazol-3(2H)-one] |  | 3 | 32
Cc1cnc(Nc2ccnn2C)nc1-c1cc2n(c1)C(=O)N([C@H](C)c1cccc(Cl)c1)C2 [Example 12, (R)-2-(1-(3-Chlorophenyl)ethyl)-6-(5-methyl-2-((1-methyl-1H-pyrazol-5-yl)amino)pyrimidin-4-yl)-1H-pyrrolo[1,2-c]imidazol-3(2H)-one] |  | 45 | 
O=C1N([C@H](CO)c2cccc(Cl)c2)Cc2cc(-c3nc(NC4CCOCC4)ncc3Cl)cn21 [Example 4, (S)-6-(5-Chloro-2-((tetrahydro-2H-pyran-4-yl)amino)pyrimidin-4-yl)-2-(1-(3-chlorophenyl)-2-hydroxyethyl)-1H-pyrrolo[1,2-c]imidazol-3(2H)-one] |  | 6 | 82
COc1cc(F)cc([C@@H](CO)N2Cc3cc(-c4nc(Nc5ccnn5C)ncc4C)cn3C2=O)c1 [Example 1, (S)-2-(1-(3-Fluoro-5-methoxyphenyl)-2-hydroxyethyl)-6-(5-methyl-2-((1-methyl-1H-pyrazol-5-yl)amino)pyrimidin-4-yl)-1H-pyrrolo[1,2-c]imidazol-3(2H)-one] | 9 | 2 | 90
CNC[C@H](c1cccc(Cl)c1)N1Cc2cc(-c3nc(Nc4ccnn4C)ncc3C)cn2C1=O [Example 13, (S)-2-(1-(3-Chlorophenyl)-2-(methylamino)ethyl)-6-(5-methyl-2-((1-methyl-1H-pyrazol-5-yl)amino)pyrimidin-4-yl)-1H-pyrrolo[1,2-c]imidazol-3(2H)-one] | 2 | 2 | 99
O=C1N([C@H](CO)c2cccc(Cl)c2)Cc2cc(-c3nc(NC4CC(O)C(F)C4)ncc3Cl)cn21 (stereo partly drawn) [Example 7, 6-(5-Chloro-2-((3-fluoro-4-hydroxycyclopentyl)amino)pyrimidin-4-yl)-2-((S)-1-(3-chlorophenyl)-2-hydroxyethyl)-1H-pyrrolo[1,2-c]imidazol-3(2H)-one] |  | 63 | 158
Cc1cnc(Nc2ccnn2C)nc1-c1cc2n(c1)C(=O)N([C@H](CO)c1cccc(Cl)c1)CC2 [Example 9, (S)-2-(1-(3-Chlorophenyl)-2-hydroxyethyl)-6-(5-methyl-2-((1-methyl-1H-pyrazol-5-yl)amino)pyrimidin-4-yl)-3,4-dihydropyrrolo[1,2-c]pyrimidin-1(2H)-one] | 12 |  | 77
Cc1cnc(Nc2ccnn2C)nc1-c1cc2n(c1)C(=O)N(Cc1ccc(F)c(F)c1)C2 [Example 18, 2-(3,4-Difluorobenzyl)-6-(5-methyl-2-((1-methyl-1H-pyrazol-5-yl)amino)pyrimidin-4-yl)-1H-pyrrolo[1,2-c]imidazol-3(2H)-one] |  | 16 | 
